Values joined by “and” are separate entries in the source; they are usually repeats but may differ in a detail not shown here. Equal entries are not always repeated.
How the values were obtained:
[1] = system: OR52cs H107A; assay: cAMP signaling assay, mutant; format: cell-based, human
Procedure: (§1) For cAMP assay, CRE luciferase assay, and surface ELISA, the full-length OR52cs construct was cloned into the pcDNA3.1 vector. The Lucy signal sequence and FLAG peptide sequence were added to the N-terminus. Mutant constructs were generated by site-directed mutagenesis. For BRET assay, eYFP was added at the C-terminus of OR52cs with a GGGGS linker. Rluc was added to Gα for resonance partner (after L99 for Gαs, and I100 for Gαolf, respectively, with GGGGS linker back and forth).
(§2) Hana3A cells were seeded on 96-well white microplates and transfected with OR52cs or the corresponding mutants and cAMP sensor (Promega). The medium was exchanged with CO2-independent medium (Gibco) supplemented with 0.375 mg ml^−1 D-luciferin (Nanolight) 48 h after infection, and cells were incubated in the dark at 20 °C for 2 h. Basal luminescence was detected using a Tristar 2 LB 942 multimode reader (Berthold) until it reached a plateau. Subsequently, various concentrations of odorants and forskolin (Sigma-Aldrich) were added to each well, and luminescence was measured again. Data were analyzed and plotted using GraphPad Prism 9.4.1.

[2] = system: OR52cs Y282A; assay: cAMP signaling assay, mutant; format: cell-based, human; settings: odorant 0.001 M; Fig.S13b source data, single experiments
Procedure: as §1, §2

[3] = system: OR52cs H183A; assay: cAMP signaling assay, mutant; format: cell-based, human; settings: for cAMP response: Fig.3d source data, single experiments
Procedure: as §1, §2

[4] = system: OR52cs V158F; assay: cAMP signaling assay, mutant; format: cell-based, human; settings: for cAMP response: Fig.S8b source data, single experiments
Procedure: as §1, §2

[5] = system: OR52cs V158F/V209M; assay: cAMP signaling assay, mutant; format: cell-based, human; settings: for cAMP response: Fig.S8b source data, single experiments
Procedure: as §1, §2

[6] = system: OR52cs R265A; assay: cAMP signaling assay, mutant; format: cell-based, human
Procedure: as §1, §2

[7] = system: OR52cs F14A / F96A / F170A; assay: cAMP signaling assay, mutant; format: cell-based, human
Procedure: as §1, §2

[8] = system: OR52cs G201V; assay: cAMP signaling assay, mutant; format: cell-based, human; settings: Fig. 3d
Procedure: as §1, §2

[9] = system: OR52cs-bRIL-ICL3; assay: cAMP signaling assay, bRIL chimera; format: cell-based, human; parameters: cAMP response: scale not given here; settings: for cAMP response: Fig.S11a source data
Excerpt: For the structural study of apo state OR52cs, the chimeric construct of full-length OR52cs (1–313)[23] was designed to insert bRIL between A226 and L227 with a linker sequence derived from adenosine receptor A2a, as previously described. For purification of active state OR52cs, full-length OR52cs (1–313) was used. Each construct was subcloned into the pFastBac HT B vector with a Lucy signal sequence ([…])[17] and FLAG peptide at the N-terminus. Each construct also included an eGFP with 10xHis-tag, which was fused to the C-terminus of OR52cs with a HRV 3C protease cleavage sequence.
as §2

[10] = system: OR52cs F261A; assay: cAMP signaling assay, mutant; format: cell-based, human; parameters: cAMP response: scale not given here; settings: for cAMP response: Fig.3d source data, single experiments
Procedure: as §1, §2

[11] = system: OR52cs F161A; assay: cAMP signaling assay, mutant; format: cell-based, human; parameters: cAMP response: scale not given here; settings: for cAMP response: Fig.3d source data, single experiments
Procedure: as §1, §2

[12] = system: OR52cs H264A; assay: cAMP signaling assay, mutant; format: cell-based, human; parameters: cAMP response: scale not given here; settings: for cAMP response: Fig.S13b source data, single experiments
Procedure: as §1, §2

[13] = system: OR52cs T110A; assay: cAMP signaling assay, mutant; format: cell-based, human; parameters: cAMP response: scale not given here; settings: for cAMP response: Fig.3d source data, single experiments
Procedure: as §1, §2

[14] = system: pcDNA (Null) Hana3A cells; assay: cAMP signaling assay, no receptor (Null / pcDNA); format: cell-based; parameters: cAMP response: unit not given here; settings: single experiments; for cAMP response: Fig.S11a source data
Procedure: as §2

In the case of `CCCCCCCC(=O)O` [Octanoate, octanoic acid], the “downstream signaling (in words)” value ([1]; Fig. 3d) is reported as “significantly reduced downstream signaling”, the “X-fold over OR52cs (relative fold of EC50)” value ([1]; Supplementary Table 3) is reported as 23.7 and the EC50 ([1]; Supplementary Table 3, N=3) is reported as 187 µM. The cAMP response ([1]; odorant 9.18274e-7 M, Fig.3d source data, single experiments) was 2.018 and 1.83 and 1.279, the cAMP response [2] was 0.7944 and 0.7429 and 0.9514 and the EC50 ([3]; Supplementary Table 3, N=3) was 41.4 µM. For the same compound, the “pEC50 ± SEM” value ([3]; Supplementary Table 3, N=3) was 4.154 ± 0.087, the cAMP response ([3]; odorant 0.0001 M) was 48.2985 and 50.8568 and 78.4687 and the cAMP response ([3]; odorant 0.001 M) was 61.0348 and 75.0061 and 91.5473. For the same compound, the “downstream signal / selectivity (in words)” value ([4]; Supplementary Fig. 8) was “greatly reduced the downstream signal”, the cAMP response ([4]; odorant 9.18274e-8 M) was -0.2745% and -0.4519% and -0.2741% and the cAMP response ([4]; odorant 9.18274e-7 M) was -1.206% and -1.168% and -3.0916%. For the same compound, the cAMP response ([4]; odorant 9.18274e-6 M) was 1.8013% and 0.5178% and -1.853%, the cAMP response ([4]; odorant 3.0303e-5 M) was 11.8948% and 7.17% and 7.559% and the cAMP response ([4]; odorant 0.0001 M) was 32.9355% and 23.3075% and 28.8455%. For the same compound, the cAMP response ([4]; odorant 0.001 M) was 85.6572% and 61.8428% and 79.0275%, the “response / preference (in words)” value ([5]; Supplementary Fig. 8) was “preference for OCA was maintained” and the cAMP response ([5]; odorant 9.18274e-8 M) was 1.119% and 0.2182% and 0.3359% and 1.739%. The cAMP response ([5]; odorant 9.18274e-7 M) was 6.95% and 4.269% and 3.744% and 7.839% and 6.948%, the cAMP response ([5]; odorant 9.18274e-6 M) was 37.3813% and 30.814% and 31.4615% and 45.1116% and 40.3488% and the cAMP response ([5]; odorant 3.0303e-5 M) was 96.8852% and 89.0601% and 97.4121% and 90.3953% and 94.2682%. The cAMP response ([5]; odorant 0.0001 M) was 87.6893% and 101.186% and 102.533% and 86.5504% and 88.6049%, the cAMP response ([5]; odorant 0.001 M) was 79.2271% and 94.3185% and 104.414% and 103.193% and 74.9407% and the “downstream signaling (in words)” value ([6]; Fig. 3d) was “complete loss of downstream signaling”. For the same compound, the cAMP response ([6]; odorant 9.18274e-6 M, Fig.3d source data, single experiments) was 1.026 and 1.808, the “cAMP response (in words)” value ([7]; Fig. 2c) was “significantly reduced cAMP response” and the “X-fold over OR52cs (relative fold of EC50)” value ([7]; Supplementary Table 3) was 26.3. For the same compound, the EC50 ([7]; Supplementary Table 3, N=3) was 208 µM, the “downstream signaling (in words)” value [8] was “loss of OCA signaling” and the “OCA-induced activity (in words)” value ([9]; Supplementary Fig. 11) was “neither basal activity nor OCA-induced activity”. For the same compound, the cAMP response ([9]; odorant 9.18274e-8 M, single experiments) was 2.864 and 3.4309 and 3.889 and 3.292, the cAMP response ([9]; odorant 9.18274e-7 M, single experiments) was 3.793 and 3.523 and 3.621 and 3.789 and the cAMP response ([9]; odorant 9.18274e-6 M, single experiments) was 3.871 and 2.869 and 3.568 and 3.2862. For the same compound, the cAMP response ([9]; odorant 3.0303e-5 M, single experiments) was 3.732 and 3.68 and 3.466 and 3.76, the cAMP response ([9]; odorant 0.0001 M, single experiments) was 4.827 and 3.799 and 4.225 and 4.217 and the “cAMP response (raw signal) upon OCA treatment” value ([9]; odorant 0.001 M (1 mM OCA), Fig.S11a left, single experiments, listed as Octanotae) was 8475 and 9202 and 7849 and 10195. For the same compound, the cAMP response ([9]; odorant 0.001 M, single experiments) was 5.645 and 5.075 and 5.021 and 7.052, the “downstream signaling (in words)” value ([10]; Fig. 3d) was “significantly reduced downstream signaling” and the “X-fold over OR52cs (relative fold of EC50)” value ([10]; Supplementary Table 3) was 64.0. For the same compound, the EC50 ([10]; Supplementary Table 3, N=3) was 506 µM, the “pEC50 ± SEM” value ([10]; Supplementary Table 3, N=3) was 3.326 ± 1.547 and the cAMP response ([10]; odorant 9.18274e-7 M) was 3.451 and 3.066 and 1.971. The cAMP response ([10]; odorant 3.0303e-5 M) was 5.756 and 6.219 and 11.0254, the cAMP response ([10]; odorant 0.001 M) was 66.0962 and 58.1347 and 77.5545 and the “X-fold over OR52cs (relative fold of EC50)” value ([11]; Supplementary Table 3) was 5.3. For the same compound, the EC50 ([11]; Supplementary Table 3, N=3) was 42 µM, the “pEC50 ± SEM” value ([11]; Supplementary Table 3, N=3) was 4.214 ± 0.075 and the cAMP response ([11]; odorant 3.0303e-5 M) was 40.1826 and 27.0053 and 36.2901. For the same compound, the cAMP response ([11]; odorant 0.0001 M) was 77.0461 and 49.0263 and 69.6028, the cAMP response ([11]; odorant 0.001 M) was 102.629 and 63.8026 and 79.1192 and the EC50 ([12]; Supplementary Fig. 13b) was 60 µM. For the same compound, the cAMP response ([12]; odorant 9.18274e-6 M) was 4.615 and 4.081 and 4.27, the cAMP response ([12]; odorant 3.0303e-5 M) was 14.0038 and 11.3214 and 12.3984 and the cAMP response ([12]; odorant 0.0001 M) was 28.5965 and 25.2729 and 26.8638. For the same compound, the cAMP response ([12]; odorant 0.001 M) was 40.8869 and 35.5267 and 36.771, the “X-fold over OR52cs (relative fold of EC50)” value ([13]; Supplementary Table 3) was 2.9 and the EC50 ([13]; Supplementary Table 3, N=3) was 22.7 µM. The “pEC50 ± SEM” value ([13]; Supplementary Table 3, N=3) was 4.293 ± 0.098, the cAMP response ([13]; odorant 3.0303e-5 M) was 45.9718 and 31.6697 and 55.6315 and the cAMP response ([13]; odorant 0.0001 M) was 55.3228 and 56.0506 and 78.0827. For the same compound, the cAMP response ([13]; odorant 0.001 M) was 63.5049 and 61.123 and 88.9664, the cAMP response ([14]; odorant 9.18274e-8 M) was 2.6643 and 2.911 and 3.873 and 3.399 and the cAMP response ([14]; odorant 9.18274e-7 M) was 2.569 and 3.588 and 3.415 and 3.589. For the same compound, the cAMP response ([14]; odorant 9.18274e-6 M) was 2.895 and 3.57 and 4.047 and 4.019, the cAMP response ([14]; odorant 3.0303e-5 M) was 3.574 and 3.7923 and 3.945 and 4.033 and the cAMP response ([14]; odorant 0.0001 M) was 3.1425 and 4.269 and 3.81 and 3.981. For the same compound, the “cAMP response (raw signal) upon OCA treatment” value ([14]; odorant 0.001 M (1 mM OCA), Fig.S11a left, listed as Octanotae) was 10538 and 15823 and 16065 and 17585 and the cAMP response ([14]; odorant 0.001 M) was 4.161 and 5.018 and 6.3304 and 6.191.
